Key:
BRD4 (BDI_K57-E168) = target: T1, BRD4 (BDI_K57-E168) (Homo sapiens, UniProt O60885); assay: TR-FRET bromodomain binding assay, BRD4 first bromodomain; conditions: His-tagged BD1, Alexa647-labeled probe 100 nM; Ki calculated from IC50
T1 construct: BD1: amino acids K57-E168; made in house
Method: (§1) A time-resolved fluorescence resonance energy transfer (TR-FRET) assay was used to determine the affinities of compounds of the Examples listed in Table 1 for each bromodomain of BRD4. His-tagged first (BD1: amino acids K57-E168) and second (BD2: amino acids E352-E168) bromodomains of BRD4 were expressed and purified. An Alexa647-labeled BET-inhibitor was used as the fluorescent probe in the assay.
(§2) Compound dilution series were prepared in DMSO via a 3-fold serial dilution from 2.5 mM to 42 nM. Compounds were then diluted 6:100 in assay buffer (20 mM Sodium Phosphate, pH 6.0, 50 mM NaCl, 1 mM Ethylenediaminetetraacetic acid disodium salt dihydrate, 0.01% Triton X-100, 1 mM DL-Dithiothreitol) to yield 3× working solutions. Six microliters (μL) of the working solution was then transferred to white, low-volume assay plates (Costar #3673). A 1.5× assay mixture containing His-tagged bromodomain, Europium-conjugated anti-His antibody (Invitrogen PV5596) and the Alexa-647-conjugated probe molecule was also prepared. Twelve μL of this solution were added to the assay plate to reach a final volume of 18 μL. The final concentration of 1× assay buffer contains 2% DMSO, 50 μM-0.85 nM compound, 8 nM His-tagged bromodomain, 1 nM Europium-conjugated anti-His-tag antibody and 100 nM or 30 nM probe (for BDI or BDII, respectively). After a one-hour incubation at room temperature, TR-FRET ratios were determined using an Envision multilabel plate reader (Ex 340, Em […]).
(§3) TR-FRET data were normalized to the means of 24 no-compound controls (“high”) and 8 controls containing 1 μM un-labeled probe (“low”). Percent inhibition was plotted as a function of compound concentration and the data were fit with the 4 parameter logistic equation to obtain IC50s. Inhibition constants (Ki) were calculated from the IC50s, probe Kd and probe concentration. Typical Z′ values were between 0.65 and 0.75. The minimum significant ratio was determined to evaluate assay reproducibility (Eastwood et al., (2006) J Biomol Screen, 11: 253-261). The MSR was determined to be 2.03 for BDI and 1.93 for BDII, and a moving MSR (last six run MSR overtime) for both BDI and BDII was typically <3.

BRD4 (BDII_E352-M457) = target: T2, BRD4 (BDII_E352-M457) (Homo sapiens, UniProt O60885); assay: TR-FRET bromodomain binding assay, BRD4 second bromodomain; conditions: His-tagged BD2, Alexa647-labeled probe 30 nM; Ki calculated from IC50
T2 construct: made in house
Method: as §1, §2, §3

Molecule	Ki (BRD4 (BDI_K57-E168)) [µM]	Ki (BRD4 (BDII_E352-M457)) [µM]
2-methyl-5-[2-(pyridin-2-yloxy)phenyl]-1H-pyrrole-3-carboxamide [Example 131]	9.4	22.2
Cc1[nH]c(-c2ccccc2N)cc1C(N)=O [Example 1, 5-(2-aminophenyl)-2-methyl-1H-pyrrole-3-carboxamide]	2.54	6.21
CC(=O)Nc1ccccc1-c1cc(C(N)=O)c(C)[nH]1 [Example 2, 5-[2-(acetylamino)phenyl]-2-methyl-1H-pyrrole-3-carboxamide]	2.92	21.5
Cc1[nH]c(-c2cccc([N+](=O)[O-])c2)cc1C(N)=O [Example 3, 2-methyl-5-(3-nitrophenyl)-1H-pyrrole-3-carboxamide]	2.33	7.2
Cc1[nH]c(-c2cccc(N)c2)cc1C(N)=O [Example 4, 5-(3-aminophenyl)-2-methyl-1H-pyrrole-3-carboxamide]	5.19	4.44
CC(=O)Nc1cccc(-c2cc(C(N)=O)c(C)[nH]2)c1 [Example 5, 5-[3-(acetylamino)phenyl]-2-methyl-1H-pyrrole-3-carboxamide]	8.09	6.43
Cc1[nH]c(-c2cccc(NS(C)(=O)=O)c2)cc1C(N)=O [Example 6, 2-methyl-5-{3-[(methylsulfonyl)amino]phenyl}-1H-pyrrole-3-carboxamide]	3.16	5.01
Cc1[nH]c(-c2ccc([N+](=O)[O-])cc2)cc1C(N)=O [Example 7, 2-methyl-5-(4-nitrophenyl)-1H-pyrrole-3-carboxamide]	1.63	6.89
Cc1[nH]c(-c2ccc(N)cc2)cc1C(N)=O [Example 8, 5-(4-aminophenyl)-2-methyl-1H-pyrrole-3-carboxamide]	2.68	3.72
Cc1[nH]c(-c2ccc(NS(C)(=O)=O)cc2)cc1C(N)=O [Example 9, 2-methyl-5-{4-[(methylsulfonyl)amino]phenyl}-1H-pyrrole-3-carboxamide]	2.88	3.14
CC(=O)Nc1ccc(-c2cc(C(N)=O)c(C)[nH]2)cc1 [Example 10, 5-[4-(acetylamino)phenyl]-2-methyl-1H-pyrrole-3-carboxamide]	3.47	5.57
Cc1[nH]c(-c2ccccc2NCc2ccc(Cl)cc2)cc1C(N)=O [Example 11, 5-{2-[(4-chlorobenzyl)amino]phenyl}-2-methyl-1H-pyrrole-3-carboxamide]	2.87	2.51
Cc1[nH]c(-c2ccccc2NCc2cc(Br)cs2)cc1C(N)=O [Example 15, 5-(2-{[(4-bromothiophen-2-yl)methyl]amino}phenyl)-2-methyl-1H-pyrrole-3-carboxamide]	2.58	2.31
COc1cc(CNc2ccccc2-c2cc(C(N)=O)c(C)[nH]2)cc(OC)c1OC [Example 16, 2-methyl-5-{2-[(3,4,5-trimethoxybenzyl)amino]phenyl}-1H-pyrrole-3-carboxamide]	1.18	2.02
Cc1cc(CNc2ccccc2-c2cc(C(N)=O)c(C)[nH]2)oc1C [Example 20, 5-(2-{[(4,5-dimethylfuran-2-yl)methyl]amino}phenyl)-2-methyl-1H-pyrrole-3-carboxamide]	1.19	3.29
Cc1[nH]c(-c2ccccc2NCc2cc(C(F)(F)F)cc(C(F)(F)F)c2)cc1C(N)=O [Example 21, 5-(2-{[3,5-bis(trifluoromethyl)benzyl]amino}phenyl)-2-methyl-1H-pyrrole-3-carboxamide]	9.69	21.5

Molecule	Ki (BRD4 (BDI_K57-E168)) [µM]	Ki (BRD4 (BDII_E352-M457)) [µM]
Cc1[nH]c(-c2ccccc2NCc2c(F)cccc2F)cc1C(N)=O [Example 22, 5-{2-[(2,6-difluorobenzyl)amino]phenyl}-2-methyl-1H-pyrrole-3-carboxamide]	2.98	3.66
Cc1[nH]c(-c2ccccc2NCc2ccc(F)cc2)cc1C(N)=O [Example 23, 5-{2-[(4-fluorobenzyl)amino]phenyl}-2-methyl-1H-pyrrole-3-carboxamide]	3.52	3.53
Cc1[nH]c(-c2ccccc2NCc2ccc(NC(=O)OC(C)(C)C)cc2)cc1C(N)=O [Example 50, tert-butyl [4-({[2-(4-carbamoyl-5-methyl-1H-pyrrol-2-yl)phenyl]amino}methyl)phenyl]carbamate]	5.04	–
Cc1[nH]c(-c2ccccc2NCc2cccc(NC(=O)OC(C)(C)C)c2)cc1C(N)=O [Example 51, tert-butyl [3-({[2-(4-carbamoyl-5-methyl-1H-pyrrol-2-yl)phenyl]amino}methyl)phenyl]carbamate]	6.7	–
CC(=O)n1cc(CN(CC2CCCC2)c2ccccc2-c2cc(C(N)=O)c(C)[nH]2)c2ccccc21 [Example 58, 5-(2-{[(1-acetyl-1H-indol-3-yl)methyl](cyclopentylmethyl)amino}phenyl)-2-methyl-1H-pyrrole-3-carboxamide]	4.68	–
COc1ccc(CN(CC2CCCC2)c2ccccc2-c2cc(C(N)=O)c(C)[nH]2)cc1 [Example 61, 5-{2-[(cyclopentylmethyl)(4-methoxybenzyl)amino]phenyl}-2-methyl-1H-pyrrole-3-carboxamide]	8.28	–
Cc1[nH]c(-c2ccccc2NC2CCNC2)cc1C(N)=O (centres unmarked) [Example 64, 2-methyl-5-[2-(pyrrolidin-3-ylamino)phenyl]-1H-pyrrole-3-carboxamide]	1.04	–
Cc1[nH]c(-c2ccccc2NC2CN3CCC2CC3)cc1C(N)=O (centres unmarked) [Example 71, 5-[2-(1-azabicyclo[2.2.2]oct-3-ylamino)phenyl]-2-methyl-1H-pyrrole-3-carboxamide]	0.628	–
Cc1[nH]c(-c2ccccc2NS(=O)(=O)c2ccc(Cl)cc2)cc1C(N)=O [Example 81, 5-(2-{[(4-chlorophenyl)sulfonyl]amino}phenyl)-2-methyl-1H-pyrrole-3-carboxamide]	9.29	–
Cc1[nH]c(-c2ccccc2NS(=O)(=O)c2ccc(F)cc2F)cc1C(N)=O [Example 84, 5-(2-{[(2,4-difluorophenyl)sulfonyl]amino}-phenyl)-2-methyl-1H-pyrrole-3-carboxamide]	10.6	–
Cc1[nH]c(-c2ccccc2NS(=O)(=O)c2ccc(O)cc2)cc1C(N)=O [Example 88, 5-(2-{[(4-hydroxyphenyl)sulfonyl]amino}phenyl)-2-methyl-1H-pyrrole-3-carboxamide]	8.48	–
Cc1[nH]c(-c2ccccc2-n2ccc(=O)cc2)cc1C(N)=O [Example 120]	4.41	–
Cc1[nH]c(-c2ccccc2Oc2ccc(S(C)(=O)=O)cc2)cc1C(N)=O [Example 132, 2-methyl-5-{2-[4-(methylsulfonyl)phenoxy]phenyl}-1H-pyrrole-3-carboxamide]	10.9	–
COc1cccc(-c2cccc(-c3cc(C(N)=O)c(C)[nH]3)c2)c1 [Example 151, 5-(3′-methoxybiphenyl-3-yl)-2-methyl-1H-pyrrole-3-carboxamide]	10.4	–
Cc1[nH]c(-c2cccc(/C=C/c3ccccc3)c2)cc1C(N)=O [Example 157, 2-methyl-5-{3-[(E)-2-phenylethenyl]phenyl}-1H-pyrrole-3-carboxamide]	7.41	–
Cc1[nH]c(-c2cccc(Oc3ccc4c(c3)OCO4)c2)cc1C(N)=O [Example 160, 5-[3-(1,3-benzodioxol-5-yloxy)phenyl]-2-methyl-1H-pyrrole-3-carboxamide]	11.5	–

Source: patent US9493411B2 (AbbVie Inc., priority 2013, dated 2016)
